Laboratory results published in US11999727B2 (Tango Therapeutics, Inc., priority 2020, dated 2024).

Experiments:
[1] = system: HAP1 MTAP-deleted cell line; test: SDMA in-cell western assay, HAP1 MTAP-deleted; assay type: cell-based; conditions: for IC50: Homo sapiens, HAP1, SDMA in-cell western, HAP1 MTAP-deleted, read-out: HAP1 MTAP deleted IC50; for MTAP intact/deleted ratio: IC50 ratio HAP1 MTAP-intact / HAP1 MTAP-deleted, SDMA in-cell western
Outline: (§1)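 Compounds were tested in HAP1 cells differing only in MTAP status (endogenous expression versus null). Cellular SDMA levels were then measured by in-cell western, giving an IC50 in each background.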

PRMT5 [2] = target: T1, PRMT5 (Homo sapiens, UniProt O14744); test: PRMT5 biochemical IC50 assay with no cofactor; conditions: PRMT5, no cofactor; read-out: No Cofactor/rel IC50
T1 construct: purchased Viva (custom protein)
From the text: Table 1 indicates IC50 values (μM) against PRMT5 for exemplary compounds in the presence of SAM as cofactor, with no cofactor, and with MTA as cofactor, respectively (columns 4-6). […] Ki values can be calculated from the IC50 values as described in the Examples section. As detailed in the Examples section, for the assay performed in the presence of SAM, IC50=Ki×1.5 (Ki=IC50/1.5).

[3] = system: HAP1 MTAP-intact cell line; test: SDMA in-cell western assay, HAP1 MTAP-intact; assay type: cell-based; conditions: Homo sapiens, HAP1, SDMA in-cell western, HAP1 MTAP-intact; read-out: MTAP HAP1 intact IC50
Outline: as §1

PRMT5 [4] = target: T1, PRMT5; test: PRMT5 biochemical IC50 assay with SAM as cofactor; conditions: PRMT5, SAM as cofactor; read-out: SAM IC50
PRMT5 [5] = target: T1, PRMT5; test: PRMT5 biochemical IC50 assay with MTA as cofactor; conditions: PRMT5, MTA as cofactor; read-out: MTA IC50
[6] = system: HAP1 MTAP-deleted cell line; test: Viability assay, MTAP-deleted cell line; assay type: cell-based; conditions: Homo sapiens, HAP1, viability assay, HAP1 MTAP-deleted; read-out: HAP1 MTAP deleted viability
From the text: Table 1 additionally indicates IC50 values in a viability assay for the MTAP-deleted cell line (column 10), indicating the effect of treatment with compound on cell survival.

T1 sequence (O14744 whole entry): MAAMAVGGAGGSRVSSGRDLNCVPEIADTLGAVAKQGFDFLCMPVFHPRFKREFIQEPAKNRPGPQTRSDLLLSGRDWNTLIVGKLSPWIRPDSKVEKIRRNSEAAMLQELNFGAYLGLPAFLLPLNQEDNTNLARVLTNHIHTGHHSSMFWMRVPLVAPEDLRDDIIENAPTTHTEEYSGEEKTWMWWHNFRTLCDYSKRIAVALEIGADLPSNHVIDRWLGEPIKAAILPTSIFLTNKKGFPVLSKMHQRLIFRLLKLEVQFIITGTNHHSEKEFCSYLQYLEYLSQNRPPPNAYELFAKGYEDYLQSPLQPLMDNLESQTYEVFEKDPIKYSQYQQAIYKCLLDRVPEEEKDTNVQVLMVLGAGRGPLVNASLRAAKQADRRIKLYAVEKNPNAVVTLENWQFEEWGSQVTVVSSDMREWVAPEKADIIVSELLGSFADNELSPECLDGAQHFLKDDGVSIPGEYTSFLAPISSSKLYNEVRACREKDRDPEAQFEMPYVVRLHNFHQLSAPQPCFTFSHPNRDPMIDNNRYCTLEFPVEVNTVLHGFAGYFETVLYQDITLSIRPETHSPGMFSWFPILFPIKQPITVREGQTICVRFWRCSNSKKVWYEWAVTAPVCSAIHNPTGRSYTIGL
T1 sequence (Q9BQA1 whole entry partner): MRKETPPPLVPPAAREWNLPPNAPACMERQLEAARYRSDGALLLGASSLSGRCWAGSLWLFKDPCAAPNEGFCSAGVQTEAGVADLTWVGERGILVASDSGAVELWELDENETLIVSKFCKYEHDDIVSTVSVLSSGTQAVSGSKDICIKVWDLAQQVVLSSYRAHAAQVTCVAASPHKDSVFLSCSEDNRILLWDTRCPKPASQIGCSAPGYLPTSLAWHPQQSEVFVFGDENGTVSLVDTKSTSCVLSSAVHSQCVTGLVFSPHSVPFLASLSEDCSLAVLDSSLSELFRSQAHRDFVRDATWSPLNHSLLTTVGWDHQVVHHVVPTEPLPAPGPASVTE

Cc1cc(NC(=O)C(=O)N2C[C@H](C)CC[C@H]2c2cccc3c2CC(=O)N3)cnc1N (racemic) [Compound 714, N-(6-Amino-5-methyl-3-pyridyl)-2-[(2S,5R)-5-methyl-2-(2-oxoindolin-4-yl)-1-piperidyl]-2-oxo-acetamide]
IC50 [1]: 100 to 1000 nM | MTAP intact/deleted ratio [1]: A (an IC50 ratio greater than or equal to 10 fold) | IC50 (PRMT5 [2]): 50 to 500 nM | IC50 [3]: > 1000 nM | IC50 (PRMT5 [4]): 50 to 500 nM | IC50 (PRMT5 [5]): < 50 nM | IC50 [6]: 1000 to 10000 nM

Cc1cc(NC(=O)C(=O)N2C[C@H](C)CC[C@H]2c2ccn(-c3ccn[nH]3)n2)cnc1N (racemic) [Compound 715, 2-(2-(1′H-[1,3′-bipyrazol]-3-yl)-5-methylpiperidin-1-yl)-N-(6-amino-5-methylpyridin-3-yl)-2-oxoacetamide]
IC50 [1]: < 100 nM | MTAP intact/deleted ratio [1]: A (an IC50 ratio greater than or equal to 10 fold) | IC50 (PRMT5 [2]): 50 to 500 nM | IC50 [3]: > 1000 nM | IC50 (PRMT5 [4]): > 500 nM | IC50 (PRMT5 [5]): 50 to 500 nM | IC50 [6]: 1000 to 10000 nM

Cc1cc(NC(=O)C(=O)N2C[C@H](C)CC[C@H]2c2ccc3ncsc3c2)cnc1N (racemic) [Compound 716, N-(6-amino-5-methyl-3-pyridyl)-2-[(2S,5R)-2-(1,3-benzothiazol-6-yl)-5-methyl-1-piperidyl]-2-oxo-acetamide]
IC50 [1]: < 100 nM | MTAP intact/deleted ratio [1]: A (an IC50 ratio greater than or equal to 10 fold) | IC50 (PRMT5 [2]): 50 to 500 nM | IC50 [3]: > 1000 nM | IC50 (PRMT5 [4]): 50 to 500 nM | IC50 (PRMT5 [5]): < 50 nM | IC50 [6]: < 1000 nM

CC(=O)N1CCC([C@@H]2CC[C@@H](C)CN2C(=O)C(=O)Nc2cnc(N)c(C)c2)CC1 (racemic) [Compound 737, 2-[(2R,5S)-2-(1-acetyl-4-piperidyl)-5-methyl-1-piperidyl]-N-(6-amino-5-methyl-3-pyridyl)-2-oxo-acetamide]
IC50 [1]: > 1000 nM | MTAP intact/deleted ratio [1]: B (an IC50 ratio greater than or equal to 3 fold but lower than 10 fold) | IC50 (PRMT5 [2]): 50 to 500 nM | IC50 [3]: > 1000 nM | IC50 (PRMT5 [4]): > 500 nM | IC50 (PRMT5 [5]): 50 to 500 nM | IC50 [6]: > 10000 nM

CCOc1ncc(NC(=O)C(=O)N2C[C@@H](C)CC[C@@H]2c2ccccc2)cc1C(N)=O (racemic) [Compound 738]
IC50 [1]: > 1000 nM | MTAP intact/deleted ratio [1]: B (an IC50 ratio greater than or equal to 3 fold but lower than 10 fold) | IC50 (PRMT5 [2]): 50 to 500 nM | IC50 [3]: > 1000 nM | IC50 (PRMT5 [4]): 50 to 500 nM | IC50 (PRMT5 [5]): 50 to 500 nM | IC50 [6]: > 10000 nM

Cc1cc(NC(=O)C(=O)N2C[C@H](C)CC[C@H]2c2cc3[nH]ncc3s2)cnc1N (racemic) [Compound 743, N-(6-amino-5-methylpyridin-3-yl)-2-(5-methyl-2-(1H-thieno[3,2-c]pyrazol-5-yl)piperidin-1-yl)-2-oxoacetamide]
IC50 [1]: < 100 nM | MTAP intact/deleted ratio [1]: A (an IC50 ratio greater than or equal to 10 fold) | IC50 (PRMT5 [2]): 50 to 500 nM | IC50 [3]: 100 to 1000 nM | IC50 (PRMT5 [4]): 50 to 500 nM | IC50 (PRMT5 [5]): 50 to 500 nM | IC50 [6]: < 1000 nM

Cc1cc(NC(=O)C(=O)N2C[C@H](C)CC[C@H]2C2CCCNC2)cnc1N (mixture of isomers) [Compound 744, N-(6-amino-5-methyl-3-pyridyl)-2-[(2R,5S)-5-methyl-2-(3-piperidyl)-1-piperidyl]-2-oxo-acetamide]
IC50 [1]: > 1000 nM | MTAP intact/deleted ratio [1]: C (an IC50 ratio of less than 3 fold) | IC50 (PRMT5 [2]): > 500 nM | IC50 [3]: > 1000 nM | IC50 (PRMT5 [4]): > 500 nM | IC50 (PRMT5 [5]): 50 to 500 nM | IC50 [6]: > 10000 nM

CC(=O)N[C@H]1CCN(C(=O)C(=O)Nc2cncc(C(N)=O)c2)[C@@H](c2ccccc2)C1 (racemic) [Compound 745, 5-[[2-[(2R,4S)-4-acetamido-2-phenyl-1-piperidyl]-2-oxo-acetyl]amino]pyridine-3-carboxamide]
IC50 [1]: > 1000 nM | MTAP intact/deleted ratio [1]: C (an IC50 ratio of less than 3 fold) | IC50 (PRMT5 [2]): > 500 nM | IC50 [3]: > 1000 nM | IC50 (PRMT5 [4]): > 500 nM | IC50 (PRMT5 [5]): 50 to 500 nM | IC50 [6]: > 10000 nM

CCc1ncc(NC(=O)C(=O)N2C[C@@H](C)CC[C@@H]2c2ccccc2)cc1C(N)=O (racemic) [Compound 747, 2-Ethyl-5-[[2-[(2S,5R)-5-methyl-2-phenyl-1-piperidyl]-2-oxo-acetyl]amino]pyridine-3-carboxamide]
IC50 [1]: > 1000 nM | MTAP intact/deleted ratio [1]: B (an IC50 ratio greater than or equal to 3 fold but lower than 10 fold) | IC50 (PRMT5 [2]): 50 to 500 nM | IC50 [3]: > 1000 nM | IC50 (PRMT5 [4]): 50 to 500 nM | IC50 (PRMT5 [5]): 50 to 500 nM | IC50 [6]: > 10000 nM

CC(=O)N1CCCC([C@@H]2CC[C@@H](C)CN2C(=O)C(=O)Nc2cnc(N)c(C)c2)C1 (mixture of isomers) [Compound 757, rac-2-[(2R,5S)-2-(1-acetyl-3-piperidyl)-5-methyl-1-piperidyl]-N-(6-amino-5-methyl-3-pyridyl)-2-oxo-acetamide]
IC50 [1]: 100 to 1000 nM | MTAP intact/deleted ratio [1]: B (an IC50 ratio greater than or equal to 3 fold but lower than 10 fold) | IC50 (PRMT5 [2]): 50 to 500 nM | IC50 [3]: > 1000 nM | IC50 (PRMT5 [4]): 50 to 500 nM | IC50 (PRMT5 [5]): 50 to 500 nM | IC50 [6]: > 10000 nM

COc1ncc(NC(=O)C(=O)N2C[C@@H](C)CC[C@@H]2c2ccc3c(c2)C(=O)NC3)cc1C(N)=O (racemic) [Compound 759, 2-methoxy-5-[[2-[(2S,5R)-5-methyl-2-(3-oxoisoindolin-5-yl)-1-piperidyl]-2-oxo-acetyl]amino]pyridine-3-carboxamide]
IC50 [1]: 100 to 1000 nM | MTAP intact/deleted ratio [1]: A (an IC50 ratio greater than or equal to 10 fold) | IC50 (PRMT5 [2]): 50 to 500 nM | IC50 [3]: > 1000 nM | IC50 (PRMT5 [4]): 50 to 500 nM | IC50 (PRMT5 [5]): < 50 nM | IC50 [6]: 1000 to 10000 nM

Cc1cc(NC(=O)C(=O)N2C[C@H](C)CC[C@H]2C2CC3(CC(N)C3)C2)cnc1N (mixture of isomers) [Compound 773, N-(6-amino-5-methylpyridin-3-yl)-2-(2-(6-aminospiro[3.3]heptan-2-yl)-5-methylpiperidin-1-yl)-2-oxoacetamide]
IC50 [1]: 100 to 1000 nM | MTAP intact/deleted ratio [1]: B (an IC50 ratio greater than or equal to 3 fold but lower than 10 fold) | IC50 (PRMT5 [2]): 50 to 500 nM | IC50 [3]: > 1000 nM | IC50 (PRMT5 [4]): 50 to 500 nM | IC50 (PRMT5 [5]): 50 to 500 nM | IC50 [6]: 1000 to 10000 nM

Cc1cc(NC(=O)C(=O)N2C[C@@H](C)CC[C@H]2C23CC(O)(C2)C3)cnc1N (racemic) [Compound 774]
IC50 [1]: > 1000 nM | MTAP intact/deleted ratio [1]: B (an IC50 ratio greater than or equal to 3 fold but lower than 10 fold) | IC50 (PRMT5 [2]): > 500 nM | IC50 [3]: > 1000 nM | IC50 (PRMT5 [4]): > 500 nM | IC50 (PRMT5 [5]): 50 to 500 nM | IC50 [6]: > 10000 nM

CNC(=O)N1CCC([C@@H]2CC[C@@H](C)CN2C(=O)C(=O)Nc2cnc(N)c(C)c2)CC1 (racemic) [Compound 781, 4-[(2R,5S)-1-[2-[(6-amino-5-methyl-3-pyridyl)amino]-2-oxo-acetyl]-5-methyl-2-piperidyl]-N-methyl-piperidine-1-carboxamide]
IC50 [1]: < 100 nM | MTAP intact/deleted ratio [1]: A (an IC50 ratio greater than or equal to 10 fold) | IC50 (PRMT5 [2]): 50 to 500 nM | IC50 [3]: > 1000 nM | IC50 (PRMT5 [4]): 50 to 500 nM | IC50 (PRMT5 [5]): 50 to 500 nM | IC50 [6]: 1000 to 10000 nM

C[C@@H]1CC[C@@H](c2cncc(Cl)c2)N(C(=O)C(=O)Nc2cncc(C(N)=O)c2)C1 (racemic) [Compound 791, 5-(2-(2-(5-chloropyridin-3-yl)-5-methylpiperidin-1-yl)-2-oxoacetamido)nicotinamide]
IC50 [1]: 100 to 1000 nM | MTAP intact/deleted ratio [1]: A (an IC50 ratio greater than or equal to 10 fold) | IC50 (PRMT5 [2]): 50 to 500 nM | IC50 [3]: > 1000 nM | IC50 (PRMT5 [4]): 50 to 500 nM | IC50 (PRMT5 [5]): < 50 nM | IC50 [6]: 1000 to 10000 nM

Cc1cc(NC(=O)C(=O)N2C[C@H](C)CC[C@H]2c2cnn(-c3ccn[nH]3)c2)cnc1N (racemic) [Compound 793, N-(6-amino-5-methyl-3-pyridyl)-2-[(2R,5S)-5-methyl-2-[1-(1H-pyrazol-3-yl)pyrazol-4-yl]-1-piperidyl]-2-oxo-acetamide]
IC50 [1]: 100 to 1000 nM | MTAP intact/deleted ratio [1]: A (an IC50 ratio greater than or equal to 10 fold) | IC50 (PRMT5 [2]): 50 to 500 nM | IC50 [3]: > 1000 nM | IC50 (PRMT5 [4]): 50 to 500 nM | IC50 (PRMT5 [5]): 50 to 500 nM | IC50 [6]: 1000 to 10000 nM

Cc1ncc(NC(=O)C(=O)N2C[C@H](C)CC[C@H]2c2ccc3c(c2)CCC(=O)N3)cc1C(F)F (racemic) [Compound 803, rac-N-[5-(Difluoromethyl)-6-methyl-3-pyridyl]-2-[(2S,5R)-5-methyl-2-(2-oxo-3,4-dihydro-1H-quinolin-6-yl)-1-piperidyl]-2-oxo-acetamide]
IC50 [1]: < 100 nM | MTAP intact/deleted ratio [1]: A (an IC50 ratio greater than or equal to 10 fold) | IC50 (PRMT5 [2]): 50 to 500 nM | IC50 [3]: > 1000 nM | IC50 (PRMT5 [4]): 50 to 500 nM | IC50 (PRMT5 [5]): < 50 nM | IC50 [6]: < 1000 nM
